The test system of one data set is BRD3-NUT cells. Briefly: BRD3-NUT murine xenograft model. To be noted: 50 mg/kg IP 7 days/week. The format is in vivo, mouse. An excerpt: Mice were implanted subcutaneously with BRD3-NUT cells. Tumor measurement data were collected weekly. […] On day 24 post-injection, five mice from each group were euthanized and tumor samples were collected to be sent for lab analysis. Throughout the remainder of the study tumor samples were collected as mice were sacrificed. For all samples one half of the tumor was fixed in 10% formalin and the other half was flash frozen on dry ice. Treatment ended on day 32. Tumor volume and weights were collected weekly until all mice either became moribund or tumors reached 2 cm in any dimension. […] Upon cessation of therapy, tumor growth resumed. Tumor volume differences were significant at all points (p=7.65274E-09 at Day 24).

Data set [1] deals with TE10. The data set can be described thus: Differentiation immunohistochemistry in non-BRD4-dependent squamous carcinoma cell line.
Description: Media was then removed and chambers were washed with cold PBS. Cells were then fixed in 4% formaldehyde for 20 minutes at 4° C., washed with PBS and transferred to the Dana-Farber/Harvard Cancer Center (DF/HCC) Specialized Histopathology Services Core at Brigham and Women's Hospital for staining, as described below. […] Cells were then trypsinized and cell pellets were formed by centrifugation at 2,000 rpm for 10 minutes, stabilized with ½ volume of HistoGel (Richard-Allen Scientific) and 10% bovine serum albumin. Cell pellets were washed with PBS and fixed in 4% formaldehyde for 20 minutes at 4° C. The cells were then washed with PBS and transferred to the DF/HCC Core Laboratory at the Brigham and Women's Hospital for staining, as described below. […] All fixed material was embedded, sectioned and stained by the DF/HCC Core Laboratory at Brigham and Women's Hospital, using established optimized protocols. Images were obtained using an Olympus BX40 microscope (Olympus Imaging America, Center Valley, Pa.) and a Micropublisher 3.3 RTV color camera (QImaging, Surrey, BC).
The target in a further data set is GFP-BRD4 (Homo sapiens (Human), UniProt O60885). Briefly: FRAP in U2OS cells transfected with GFP-BRD4. The format is cell-based.
Data set [2] relates to BRD4-dependent human carcinoma cells. The data set can be described thus: Annexin-V / propidium iodide flow cytometry (apoptosis). It is filed as cell-based. Particulars: 500 nM, 24 or 48 hours. The method, then: (§1) Thus, early and late apoptosis was assessed with annexin-V and propidium iodide staining by flow cytometry.
Trypsinized cells were mixed 1:1 on ice with Annexin-V/propidium iodide buffer (10 mM HEPES pH 7.4, 140 mM NaCl, 2.5 mM CaCl2) containing Annexin V-FITC (BD Pharmingen, 1:500) and propidium iodide (Invitrogen, 1:1000). Samples were immediately analyzed on a BD FACS Canto II. Visualizations and analyses of apoptotic fractions were generated using FlowJo flow cytometry analysis software (Tree Star, Inc.).
(In general: A flow cytometer gives signals particle by particle.)

Another data set deals with NMC 797 xenografts. The data set can be described thus: NMC 797 xenograft efficacy study. The format is in vivo, mouse. An excerpt: Animals were followed daily for clinical symptoms.
The next data set has as its target GFP-NUT (Homo sapiens (Human), UniProt Q86Y26). Briefly: FRAP in cells transfected with GFP-NUT. To be noted: 500 nM.
The next data set deals with cellular receptors. The data set can be described thus: Off-target effects on cellular receptors.
A further data set has as its target GFP-BRD4-NUT (Homo sapiens (Human), UniProt O60885+Q86Y26). Particulars: 500 nM.
Data set [3] has as its system TE10. Briefly: Cell proliferation, TE10 squamous carcinoma cell line. The format is cell-based, human. Particulars: 250 nM, 72 hours. As for the experimental part:
(§2) Data is presented as mean±s.d. (n=3). IC50 values were calculated by logistic regression.

Another data set deals with TT. The data set can be described thus: Cell proliferation, TT squamous carcinoma cell line. The format is cell-based, human. Particulars: 250 nM, 72 hours. The method, then: as §2
For the next data set, the system named is Per403 cells. Briefly: cells. To be noted: Homo sapiens, PER-403, 72 h, read-out: Per403 IC50 (inhibition of cell growth). The method, then:
as §1

Another data set concerns NMC 11060 cells. Briefly: cells. Particulars: Homo sapiens, NMC 11060, 72 h, read-out: cellular viability IC50. As for the experimental part:
Data is presented as mean±s.d. (n=3). IC50 values were calculated by logistic regression. […] (n=3).
(§3) In parallel with these studies, a patient with widely metastatic BRD4-NUT positive NMC arising from the mediastinum was identified. With the goal of developing a more clinically-relevant disease model, short-term cultures were established using discarded clinical material obtained from pleural fluid draining from a palliative chest tube in the patient.

The test system of a further data set is NMC 11060 xenografts. The data set can be described thus: Patient-derived NMC 11060 primary xenograft, PET imaging. The format is in vivo, mouse. Particulars: 50 mg kg^-1 daily for four days.
Description: as §3

The subject of a further data set is NMC 797 and Per403 cells. The data set can be described thus: Differentiation and proliferation immunohistochemistry in NMC cells. The format is cell-based, human. Particulars: BRD4-dependent NMC cells.
For a further data set, the system named is 10326 cells. The data set can be described thus: Cell proliferation assay, 10326 patient-derived cell line. The format is cell-based. To be noted: Homo sapiens, read-out: Cell-assay IC50 10326 cells.
The next data set concerns 797 cells. Briefly: Cell proliferation assay, 797 NMC cell line. It is filed as cell-based. Particulars: Homo sapiens, read-out: Cell-assay IC50 797 cells.
In another data set the target is BRD4(1) (Homo sapiens (Human), UniProt O60885). Briefly: Alpha-assay acetyl-histone binding, BRD4 site 1. As for the experimental part: The binding activity of lead compounds with the BRD4 site 1 was determined by Alpha-assay with a 12-point dose response curve (FIG. 56A).
Assays were performed as described previously^8 with minor modifications from the manufacturer's protocol (PerkinElmer, USA). All reagents were diluted in 50 mM HEPES, 100 mM NaCl, 0.1% BSA, pH 7.4 supplemented with 0.05% CHAPS and allowed to equilibrate to room temperature prior to addition to plates. […] Plates were sealed and incubated for a further 30 minutes, before the addition of 4 μl of streptavidin-coated donor beads (25 μg/ml) and 4 μl nickel chelate acceptor beads (25 μg/ml) under low light conditions. Plates were foil-sealed to protect from light, incubated at room temperature for 60 minutes and read on a PHERAstar FS plate reader (BMG Labtech, Germany) using an AlphaScreen 680 excitation/570 emission filter set. IC50 values were calculated in Prism 5 (GraphPad Software, USA) after normalization against corresponding DMSO controls and are given as the final concentration of compound in the 20 μl reaction volume.

The target in a further data set is BRD4(2) (Homo sapiens (Human), UniProt O60885). Briefly: Alpha-assay acetyl-histone binding, BRD4 site 2.

Read-outs that look alike come from different tables or passages of the source.

The results in this text go back to patent US10407441B2, “Compositions and methods for treating neoplasia, inflammatory disease and other disorders” (Dana-Farber Cancer Institute, Inc., priority 2010, dated 2019).

Chain of GFP-NUT (Q86Y26 whole entry, looked up): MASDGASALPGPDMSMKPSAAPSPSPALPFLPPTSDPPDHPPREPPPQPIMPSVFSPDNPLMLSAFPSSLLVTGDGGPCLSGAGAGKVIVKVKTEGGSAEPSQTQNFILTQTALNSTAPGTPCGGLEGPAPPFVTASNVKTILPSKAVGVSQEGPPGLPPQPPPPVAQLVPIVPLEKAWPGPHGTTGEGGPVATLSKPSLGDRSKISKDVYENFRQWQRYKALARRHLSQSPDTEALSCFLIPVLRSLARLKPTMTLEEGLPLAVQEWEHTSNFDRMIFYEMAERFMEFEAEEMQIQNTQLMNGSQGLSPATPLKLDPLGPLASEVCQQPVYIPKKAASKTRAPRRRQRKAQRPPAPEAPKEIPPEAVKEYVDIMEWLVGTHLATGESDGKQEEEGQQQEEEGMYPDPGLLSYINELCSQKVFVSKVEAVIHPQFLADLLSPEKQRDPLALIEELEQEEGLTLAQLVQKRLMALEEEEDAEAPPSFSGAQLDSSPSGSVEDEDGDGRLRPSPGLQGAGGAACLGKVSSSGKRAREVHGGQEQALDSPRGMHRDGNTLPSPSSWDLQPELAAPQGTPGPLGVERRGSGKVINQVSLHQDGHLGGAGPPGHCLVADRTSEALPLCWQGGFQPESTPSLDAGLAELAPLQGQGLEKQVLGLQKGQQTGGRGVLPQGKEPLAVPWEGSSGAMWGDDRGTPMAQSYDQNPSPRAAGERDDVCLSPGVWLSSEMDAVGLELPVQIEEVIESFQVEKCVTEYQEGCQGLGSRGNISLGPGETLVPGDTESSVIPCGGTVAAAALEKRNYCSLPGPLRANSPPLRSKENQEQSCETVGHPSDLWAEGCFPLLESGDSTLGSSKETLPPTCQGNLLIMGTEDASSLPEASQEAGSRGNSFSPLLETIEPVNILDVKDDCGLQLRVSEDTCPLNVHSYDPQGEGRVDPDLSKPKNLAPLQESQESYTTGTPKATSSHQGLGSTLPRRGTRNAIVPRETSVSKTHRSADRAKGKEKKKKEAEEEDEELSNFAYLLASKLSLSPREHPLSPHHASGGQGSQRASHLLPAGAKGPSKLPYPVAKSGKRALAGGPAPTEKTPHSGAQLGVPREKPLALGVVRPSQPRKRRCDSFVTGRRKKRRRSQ
Description for 10326 cells: Curve fit was calculated by logistical regression (FIG. 56C). […] Curve fit was calculated by logistical regression.
Description for 797 cells: Curve fit was calculated by logistical regression.
Cells were seeded into white, 384-well microtiter plates (Nunc) at 500 cells per well in a total volume of 50 μL media. […] Compounds were delivered to microtiter assay plates by robotic pin transfer (PerkinElmer JANUS equipped with a V&P Scientific 100 nL pin tool). Following a 48 h incubation at 37° C., cells were lysed and wells were assessed for total ATP content using a commercial proliferation assay (Cell TiterGlo; Promega). Replicate measurements were analyzed with respect to dose and estimates of IC50 were calculated by logistic regression (GraphPad Prism).
Description for GFP-BRD4-NUT: (§4) FRAP studies were performed on U2OS cells as previously described^3,20. In brief, U2OS cells were transfected (lipofectamine; Invitrogen) with mammalian overexpression constructs encoding GFP chimera with BRD4, NUT and BRD4-NUT. A 5 μm^2 nuclear region was bleached with high laser intensity in one cell within each field, and measured for recovery with low laser intensity and a 150 μm pinhole. Images of identical fields were acquired using a Nikon C1 Plus confocal microscope equipped with a 37° C. heated chamber and FRAP modules over 90 seconds. Average intensities of the bleached region were measured over time and using MetaMorph v7, and normalized to an independent region of interest before bleaching.
Description for GFP-NUT: as §4

Turning to `Cc1sc2c(c1C)C(c1ccc(Cl)cc1)=NC(CC(=O)OC(C)(C)C)c1nnc(C)n1-2` (racemic) [JQ1, tert-Butyl 2-(4-(4-chlorophenyl)-2,3,9-trimethyl-6H-thieno[3,2-f][1,2,4]triazolo[4,3-a][1,4]diazepin-6-yl)acetate], in the data set with BRD3-NUT cells, the body weight result is listed as “mild weight loss” and the tumor volume entry is on record as “tumor regression”. Besides, the differentiation effects entry in the data set on TE10 [1] is on record as “fails to exhibit differentiation effects”. For the same molecule, the “fluorescence recovery of GFP-BRD4” value on GFP-BRD4 (500 nM) is on record as “immediate”. Moreover, the “apoptosis (annexin-V and propidium iodide staining)” value in data set [2] is “induced immediate and progressive apoptosis”. In the data set with NMC 797 xenografts (50 mg kg^-1 daily IP, 14 days), the “tolerability (toxicity, weight loss)” value is “well tolerated” and the “tumor growth (tumor volume by caliper)” value is listed as “statistically-significant reduction in tumor growth”. Further, in the data set on NMC 797 xenografts (50 mg kg^-1 daily IP, four days), the “FDG uptake by PET imaging” value was “marked response on FDG uptake”. The “keratin expression by quantitative IHC” value with NMC 797 xenografts (excised tumor specimens) is recorded as “strong (3+) keratin expression”. The “redistribution of GFP-NUT” value at GFP-NUT is listed as “no effect”. Moreover, the “off-target effects on cellular receptors” value in the data set on cellular receptors is “few off-target effects”. The “time-to-recovery of fluorescence intensity, GFP-BRD4-NUT” value at GFP-BRD4-NUT is given as “markedly accelerated”. Further, in the data set on TE10 [3], the “effects on cell proliferation” value was “Minimal effects”. Further, the “effects on cell proliferation” value in the data set on TT was “Minimal effects”.

For orientation: IC50 means the concentration needed to halve the response being measured. Turning to `Cc1sc2c(c1C)C(c1ccc(Cl)cc1)=N[C@@H](CC(=O)OC(C)(C)C)c1nnc(C)n1-2` (single isomer, unassigned) [(+)-JQ1], the IC50 was 0.06 µM with Per403 cells and 0.004 µM in the data set on NMC 11060 cells. Besides, the “fluorescence recovery of GFP-BRD4” value at GFP-BRD4 (250 nM, 5 h) is on record as “enhanced recovery”. In the data set on NMC 11060 xenografts, the “keratin expression by quantitative IHC” value is “induction of keratin expression”. The “differentiation and growth arrest phenotypes” value with NMC 797 and Per403 cells is “prompted”.

In the case of `Cc1sc2c(c1C)C(c1ccc(Cl)cc1)=N[C@H](CC(=O)OC(C)(C)C)c1nnc(C)n1-2` [(R)-JQ1], the IC50 came to 11800 nM with 10326 cells (72 h) and 1540 µM with 797 cells (72 h).

`Cc1sc2c(c1C)C(c1ccc(Cl)cc1)=N[C@@H](CC(=O)OC(C)(C)C)c1nnc(C)n1-2` [(S)-JQ1, (S)-tert-Butyl 2-(4-(4-chlorophenyl)-2,3,9-trimethyl-6H-thieno[3,2-f][1,2,4]triazolo[4,3-a][1,4]diazepin-6-yl)acetate]: the IC50 in the data set on 10326 cells (72 h) was determined as 1.5 nM; in the data set with 797 cells (72 h) it was 0.0056 µM.

Take `Cc1sc2c(c1C)C(c1ccc(Cl)cc1)=N[C@@H](CC(=O)N/N=C/c1ncc[nH]1)c1nnc(C)n1-2` [JQ6]: the IC50 stood at 0.051 nM in the data set with 10326 cells (proliferation after 72 hours) and 0.001 µM in the data set on 797 cells (proliferation after 72 hours). Further, on BRD4(1), the “binding activity with the BRD4 site 1” value was “excellent binding activity”. In addition, at BRD4(2), the “binding activity with the BRD4 site 2” value was “excellent binding activity”.

With `Cc1sc2c(c1C)C(c1ccc(Cl)cc1)=N[C@@H](CC(=O)NCCc1cnc[nH]1)c1nnc(C)n1-2` [JQ8], the IC50 is 2.8 nM with 10326 cells (proliferation after 72 hours) and 0.6 µM in the data set with 797 cells (proliferation after 72 hours). The “binding activity with the BRD4 site 1” value at BRD4(1) was “excellent binding activity”. Further, at BRD4(2), the “binding activity with the BRD4 site 2” value is on record as “excellent binding activity”.

On to `Cc1sc2c(c1C)C(c1ccc(Cl)cc1)=N[C@@H](CC(=O)NCCN1CCN(C)CC1)c1nnc(C)n1-2` [JQ13], for which the “binding activity with the BRD4 site 1” value at BRD4(1) is reported as “excellent binding activity”. Further, on BRD4(2), the “binding activity with the BRD4 site 2” value is “excellent binding activity”.

Consider `Cc1sc2c(c1C)C(c1ccc(Cl)cc1)=NC(CC(=O)NCCN1CCOCC1)c1nnc(C)n1-2` (stereo not drawn) [JQ33], for which the IC50 with 10326 cells (proliferation after 72 hours) was 8 nM; in the data set with 797 cells (proliferation after 72 hours) it was 0.00297 µM.

Regarding `Cc1sc2c(c1C)C(c1ccc(Cl)cc1)=NC(CC(=O)NCCCN1CCN(C)CC1)c1nnc(C)n1-2` (stereo not drawn) [JQ35], the IC50 with 10326 cells (proliferation after 72 hours) worked out at 3 nM; with 797 cells (proliferation after 72 hours), 0.00609 µM. Besides, the “binding activity with the BRD4 site 1” value on BRD4(1) is given as “excellent binding activity”. Moreover, the “binding activity with the BRD4 site 2” value on BRD4(2) is recorded as “excellent binding activity”.
